# Entries after “also recorded” stand apart in the source; their conditions may differ.
# Tests used:
# [1] = biological target: T1, human parathyroid cells (calcium receptor) (Homo sapiens, UniProt P41180); type: cell-based; details: 1 μM
# T1 sequence (P41180 20-1078): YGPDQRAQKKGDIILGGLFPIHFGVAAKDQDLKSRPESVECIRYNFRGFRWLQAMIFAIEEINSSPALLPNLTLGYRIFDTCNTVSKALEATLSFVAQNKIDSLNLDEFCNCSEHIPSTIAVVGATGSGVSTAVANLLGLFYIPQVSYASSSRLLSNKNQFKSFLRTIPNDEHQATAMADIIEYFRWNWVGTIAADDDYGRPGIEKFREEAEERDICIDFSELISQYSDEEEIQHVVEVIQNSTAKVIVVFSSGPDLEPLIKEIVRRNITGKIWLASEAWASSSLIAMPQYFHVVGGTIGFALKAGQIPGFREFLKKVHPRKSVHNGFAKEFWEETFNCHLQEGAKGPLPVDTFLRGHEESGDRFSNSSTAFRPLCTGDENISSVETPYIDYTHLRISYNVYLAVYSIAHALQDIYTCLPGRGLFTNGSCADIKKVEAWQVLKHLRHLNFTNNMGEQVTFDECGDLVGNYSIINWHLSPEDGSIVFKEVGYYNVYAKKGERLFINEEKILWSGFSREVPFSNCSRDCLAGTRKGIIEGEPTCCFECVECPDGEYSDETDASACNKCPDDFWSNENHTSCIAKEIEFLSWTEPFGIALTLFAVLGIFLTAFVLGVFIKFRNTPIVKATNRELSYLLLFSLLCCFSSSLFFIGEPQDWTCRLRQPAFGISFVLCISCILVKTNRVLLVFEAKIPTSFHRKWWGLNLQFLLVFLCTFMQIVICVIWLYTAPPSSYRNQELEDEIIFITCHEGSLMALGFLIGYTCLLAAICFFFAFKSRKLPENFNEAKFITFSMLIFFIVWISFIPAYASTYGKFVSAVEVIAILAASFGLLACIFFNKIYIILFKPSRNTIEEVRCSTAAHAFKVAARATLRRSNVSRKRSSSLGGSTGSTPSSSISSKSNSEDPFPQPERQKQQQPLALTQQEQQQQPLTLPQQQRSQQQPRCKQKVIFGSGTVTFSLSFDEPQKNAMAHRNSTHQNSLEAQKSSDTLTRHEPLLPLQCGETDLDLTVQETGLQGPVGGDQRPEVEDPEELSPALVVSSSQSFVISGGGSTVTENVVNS
# Method: Human parathyroid glands, were obtained from patients undergoing surgical removal of parathyroid tissue for primary or uremic hyperparathyroidism (uremic HPT), and were treated similarly to bovine tissue.
# The cells were then pelleted, resuspended in the same buffer, but lacking the ester, and incubated a further 15 minutes at 37° C. The cells were subsequently washed twice with PCB containing 0.5 mM CaCl2 and 0.5% BSA and maintained at room temperature (about 20° C.). Immediately before use, the cells were diluted five-fold with prewarmed 0.5 mM CaCl2 -PCB to obtain a final BSA concentration of 0.1%. The concentration of cells in the cuvette used for fluorescence recording was 1-2×10^6 /ml.
# The fluorescence of indicator-loaded cells was measured at 37° C. in a spectrofluorimeter (Biomedical Instrumentation Group, University of Pennsylvania, Philadelphia, Pa.) equipped with a thermostated cuvette holder and magnetic stirrer using excitation and emission wavelengths of 340 and 510 nm, respectively. […] Leakage of dye is dependent on temperature and most occurs within the first 2 minutes after warming the cells in the cuvette. Dye leakage increases only very slowly thereafter. To correct the calibration for dye leakage, cells were placed in the cuvette and stirred at 37° C. for 2-3 minutes. The cell suspension was then removed, the cells pelleted, and the supernatant returned to a clean cuvette. […] This estimate was subtracted from the apparent Fmin.
# [2] = test system: PTH secretion from bovine parathyroid cells; experiment: PTH secretion from bovine parathyroid cells; type: cell-based; details: bovine parathyroid cells
# Method: PTH secretion was measured by first suspending cells in PCB containing 0.5 mM CaCl2 and 0.1% BSA.
Compound,effect on Mg2+-elicited sustained [Ca2+]i increase [1],inhibition of PTH secretion [2]
COCCOC(=O)C1=C(C)NC(C)=C(C(=O)OC(C)C)C1c1cccc([N+](=O)[O-])c1 (centres unmarked) [nimodipine],not affected,
"NCCCNCCCCNCCCN [Spermine, spermine]",,inhibits PTH secretion; also recorded: inhibited PTH secretion to the same extent
